From patent publication US8940898B2, “Piperidinyl alkyne orexin receptor antagonists” (Merck Sharp & Dohme Corp., priority 2011, dated 2015)
Blank lines part the entries; values can stand above or below the compound they belong to.

Columns and labels:
[1] = target: T1, hOX1 (orexin-1 receptor) (Homo sapiens, UniProt O43613); assay: radioligand binding assay, OX1 receptor (hOX1 Bind hKi); settings: membranes from CHO cells expressing the OX1 receptor
T1 construct: expressed in transfected cells; host or cells: CHO cells (membranes)
T1 sequence (O43613 1-425): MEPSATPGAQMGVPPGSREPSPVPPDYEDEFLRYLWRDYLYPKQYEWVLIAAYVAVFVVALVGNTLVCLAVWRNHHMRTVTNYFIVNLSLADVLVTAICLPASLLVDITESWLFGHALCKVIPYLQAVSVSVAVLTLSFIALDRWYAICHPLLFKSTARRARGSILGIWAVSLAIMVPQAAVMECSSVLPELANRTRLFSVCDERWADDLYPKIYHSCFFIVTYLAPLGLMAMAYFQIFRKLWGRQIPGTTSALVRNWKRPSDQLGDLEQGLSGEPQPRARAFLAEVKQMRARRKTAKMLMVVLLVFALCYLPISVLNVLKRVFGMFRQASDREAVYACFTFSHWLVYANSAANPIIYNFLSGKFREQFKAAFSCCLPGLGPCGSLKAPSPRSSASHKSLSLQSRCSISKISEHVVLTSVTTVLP

[2] = target: T2, human orexin-2 receptor (Homo sapiens, UniProt O43614); assay: radioligand binding assay, OX2 receptor (hOX2 Bind hKi); settings: membranes from CHO cells expressing the OX2 receptor
T2 construct: expressed in transfected cells; host or cells: CHO cells (membranes)
T2 sequence (O43614 1-444): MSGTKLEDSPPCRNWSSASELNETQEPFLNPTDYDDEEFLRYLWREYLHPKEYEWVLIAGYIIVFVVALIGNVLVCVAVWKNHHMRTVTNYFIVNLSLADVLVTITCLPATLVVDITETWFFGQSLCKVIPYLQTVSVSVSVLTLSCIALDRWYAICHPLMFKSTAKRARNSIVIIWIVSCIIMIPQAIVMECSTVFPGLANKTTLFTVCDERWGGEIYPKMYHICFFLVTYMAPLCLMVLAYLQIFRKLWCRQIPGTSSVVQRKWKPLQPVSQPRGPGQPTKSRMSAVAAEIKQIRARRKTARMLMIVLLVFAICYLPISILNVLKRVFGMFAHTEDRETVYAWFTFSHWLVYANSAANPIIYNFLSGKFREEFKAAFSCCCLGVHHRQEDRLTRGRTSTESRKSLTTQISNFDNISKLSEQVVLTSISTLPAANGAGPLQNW
Experimental: The utility of the compounds in accordance with the present invention as orexin receptor OX1R and/or OX2R antagonists may be readily determined without undue experimentation by methodology well known in the art, including the “FLIPR Ca^2+ Flux Assay” (Okumura et al., Biochem. Biophys. Res. Comm. 280:976-981, 2001). In a typical experiment the OX1 and OX2 receptor antagonistic activity of the compounds of the present invention was determined in accordance with the following experimental method. For intracellular calcium measurements, Chinese hamster ovary (CHO) cells expressing the rat orexin-1 receptor or the human orexin-2 receptor, are grown in Iscove's modified DMEM containing 2 mM L-glutamine, […], 1% hypoxanthine-thymidine supplement, 100 U/ml penicillin, 100 μg/ml streptomycin and 10% heat-inactivated fetal calf serum (FCS). The cells are seeded at 20,000 cells/well into Becton-Dickinson black 384-well clear bottom sterile plates coated with poly-D-lysine. All reagents were from GIBCO-Invitrogen Corp. The seeded plates are incubated overnight at 37° C. and 5% CO2. Ala-6,12 human orexin-A as the agonist is prepared as a 1 mM stock solution in 1% bovine serum albumin (BSA) and diluted in assay buffer (HBSS containing 20 mM HEPES, 0.1% BSA and 2.5 mM probenecid, pH7.4) for use in the assay at a final concentration of 70 pM. Test compounds are prepared as 10 mM stock solution in DMSO, then diluted in 384-well plates, first in DMSO, then assay buffer. On the day of the assay, cells are washed 3 times with 100 μl assay buffer and then incubated for 60 min (37° C., 5% CO2) in 60 μl assay buffer containing 1 μM Fluo-4AM ester, 0.02% pluronic acid, and 1% BSA. The dye loading solution is then aspirated and cells are washed 3 times with 100 μl assay buffer. 30 μl of that same buffer is left in each well. Within the Fluorescent Imaging Plate Reader (FLIPR, Molecular Devices), test compounds are added to the plate in a volume of 25 μl, incubated for 5 min and finally 25 μl of agonist is added. Fluorescence is measured for each well at 1 second intervals for 5 minutes and the height of each fluorescence peak is compared to the height of the fluorescence peak induced by […] Ala-6,12 orexin-A with buffer in place of antagonist. For each antagonist, IC50 value (the concentration of compound needed to inhibit 50% of the agonist response) is determined. Alternatively, compound potency can be assessed by a radioligand binding assay (described in Bergman et. al. Bioorg. Med. Chem. Lett. 2008, 18, 1425-1430) in which the inhibition constant (Ki) is determined in membranes prepared from CHO cells expressing either the OX1 or OX2 receptor. The intrinsic orexin receptor antagonist activity of a compound which may be used in the present invention may be determined by these assays. The following tables show representative data for the compounds of the Examples as orexin receptor antagonists as determined by the foregoing assays wherein the hOX2 Ki is a measure of the ability of the test compound to inhibit the action of the human orexin-2 receptor and the hOX1R is a measure of the ability of the test compound to inhibit the action of the rat orexin-1 receptor.

SMILES: C[C@@H]1CC[C@@H](C#Cc2ccc(CO)nc2)CN1C(=O)c1ccccc1-n1nccn1 [Example 7, (5-{[(3S,6R)-6-methyl-1-{[2-(2H-1,2,3-triazol-2-yl)phenyl]carbonyl}piperidin-3-yl]ethynyl}pyridin-2-yl)methanol]
- Ki [1]: 339 nM
- Ki [2]: ~150 nM

SMILES: Cc1nc(C(=O)N2CCCCC2C#Cc2ccc(F)cn2)c(-c2ccccc2)s1 (centres unmarked) [Example 22, 5-fluoro-2-({1-[(2-methyl-5-phenyl-1,3-thiazol-4-yl)carbonyl]piperidin-2-yl}ethynyl)pyridine]
- Ki [1]: > 2710 nM
- Ki [2]: > 2300 nM

SMILES: C[C@@H]1CC[C@@H](C#Cc2cnccc2O)CN1C(=O)c1ccccc1-n1nccn1 [Example 5, 3-{[(3S,6R)-6-methyl-1-{[2-(2H-1,2,3-triazol-2-yl)phenyl]carbonyl}piperidin-3-yl]ethynyl}pyridin-4-ol]
- Ki [1]: 866 nM
- Ki [2]: 7.5 nM

SMILES: Cc1ccc(-n2nccn2)c(C(=O)N2CCCCC2C#Cc2ccc3ccccc3n2)c1 (centres unmarked) [Example 17, 2-[(1-{[5-methyl-2-(2H-1,2,3-triazol-2-yl)phenyl]carbonyl)piperidin-2-yl)ethynyl]quinoline]
- Ki [1]: 332 nM
- Ki [2]: > 4460 nM

SMILES: Cc1ccc(-n2nccn2)c(C(=O)N2CCCCC2C#Cc2ccc(F)cn2)c1 (centres unmarked) [Example 15, 5-fluoro-2-[(1-{[5-methyl-2-(2H-1,2,3-triazol-2-yl)phenyl]carbonyl}piperidin-2-yl)ethynyl]pyridine]
- Ki [1]: > 2540 nM
- Ki [2]: 1000 nM

SMILES: Cc1ccc(-n2nccn2)c(C(=O)N2CCCCC2C#Cc2ccc3ccccc3c2)c1 (centres unmarked) [Example 19, 1-{[5-methyl-2-(2H-1,2,3-triazol-2-yl)phenyl]carbonyl}-2-(naphthalen-2-ylethynyl)piperidine]
- Ki [1]: > 476 nM
- Ki [2]: 2830 nM

SMILES: Cc1nc(C(=O)N2CCCCC2C#Cc2ccccc2)c(-c2ccccc2)s1 (centres unmarked) [Example 20, (2-Methyl-5-phenyl-1,3-thiazol-4-yl) [2-(phenylethynyl)piperidin-1-yl]methanone]
- Ki [1]: 257 nM
- Ki [2]: > 1170 nM

SMILES: Cc1nc(C(=O)N2CCCCC2C#Cc2cnc3ccccc3c2)c(-c2ccccc2)s1 (centres unmarked) [Example 26, 3-({1-[(2-methyl-5-phenyl-1,3-thiazol-4-yl)carbonyl]piperidin-2-yl}ethynyl)quinoline]
- Ki [1]: > 1600 nM
- Ki [2]: > 6120 nM

SMILES: Cc1ccc(-n2nccn2)c(C(=O)N2CCCCC2C#Cc2ccc(F)cc2)c1 (centres unmarked) [Example 16, 2-[(4-fluorophenyl)ethynyl]-1-{[5-methyl-2-(2H-1,2,3-triazol-2-yl)phenyl]carbonyl}piperidine]
- Ki [1]: 248 nM
- Ki [2]: 160 nM

SMILES: Cc1nc(C(=O)N2CCCCC2C#Cc2ccc3ccccc3c2)c(-c2ccccc2)s1 (centres unmarked) [Example 21, 1-[(2-methyl-5-phenyl-1,3-thiazol-4-yl)carbonyl]-2-(naphthalen-2-ylethynyl)piperidine]
- Ki [1]: > 1600 nM
- Ki [2]: > 754 nM

SMILES: Cc1nc(C(=O)N2CCCCC2C#Cc2cc3ccccc3cn2)c(-c2ccccc2)s1 (centres unmarked) [Example 25, 3-({1-[(2-methyl-5-phenyl-1,3-thiazol-4-yl)carbonyl]piperidin-2-yl}ethynyl)isoquinoline]
- Ki [1]: > 364 nM
- Ki [2]: > 100 nM

These reach a lower Ki [1]. Values come first.

- Ki [1]: 233 nM
- Ki [2]: > 754 nM
SMILES: Cc1nc(C(=O)N2CCCCC2C#Cc2ccc3ccccc3n2)c(-c2ccccc2)s1 (centres unmarked) [Example 24, 2-({1-[(2-methyl-5-phenyl-1,3-thiazol-4-yl)carbonyl]piperidin-2-yl}ethynyl)quinoline]

- Ki [1]: 211 nM
- Ki [2]: 130 nM
SMILES: C[C@@H]1CC[C@@H](C#Cc2ccc(CO)cn2)CN1C(=O)c1ccccc1-n1nccn1 [Example 8, (6-{[(3S,6R)-6-methyl-1-{[2-(2H-1,2,3-triazol-2-yl)phenyl]carbonyl}piperidin-3-yl]ethynyl}pyridin-3-yl)methanol]

- Ki [1]: 186 nM
- Ki [2]: 721 nM
SMILES: Cc1nc(C(=O)N2CCCCC2C#Cc2ccc(F)cc2)c(-c2ccccc2)s1 (centres unmarked) [Example 23, 2-[(4-fluorophenyl)ethynyl]-1-[(2-methyl-5-phenyl-1,3-thiazol-4-yl)carbonyl]piperidine]

- Ki [1]: 108 nM
- Ki [2]: 32 nM
SMILES: C[C@@H]1CC[C@@H](C#Cc2cncc(CO)c2)CN1C(=O)c1ccccc1-n1nccn1 [Example 11, (5-{[(3S,6R)-6-methyl-1-{[2-(2H-1,2,3-triazol-2-yl)phenyl]carbonyl}piperidin-3-yl]ethynyl}pyridin-3-yl)methanol]

- Ki [1]: 107 nM
- Ki [2]: 41 nM
SMILES: C[C@@H]1CC[C@@H](C#Cc2ccncc2)CN1C(=O)c1ccccc1-n1nccn1 [Example 2, 4-{[(3S,6R)-6-methyl-1-{[2-(2H-1,2,3-triazol-2-yl)phenyl]carbonyl}piperidin-3-yl]ethynyl}pyridine]

- Ki [1]: 76 nM
- Ki [2]: 42 nM
SMILES: C[C@@H]1CC[C@@H](C#Cc2cc(CO)ccn2)CN1C(=O)c1ccccc1-n1nccn1 [Example 10, (2-{[(3S,6R)-6-methyl-1-{[2-(2H-1,2,3-triazol-2-yl)phenyl]carbonyl}piperidin-3-yl]ethynyl}pyridin-4-yl)methanol]

- Ki [1]: 27 nM
- Ki [2]: 11 nM
SMILES: C[C@@H]1CCC(C#Cc2ccccn2)CN1C(=O)c1ccccc1-n1nccn1 (stereo in doubt) [Example 1, [(2R,5R)-2-Methyl-5-(pyridin-2-ylethynyl)piperidin-1-yl][2-(2H-1,2,3-triazol-2-yl)phenyl]methanone]

- Ki [1]: 26 nM
- Ki [2]: 7 nM
SMILES: C[C@@H]1CC[C@@H](C#Cc2cccnc2)CN1C(=O)c1ccccc1-n1nccn1 [Example 3, 3-{[(3S,6R)-6-methyl-1-{[2-(2H-1,2,3-triazol-2-yl)phenyl]carbonyl}piperidin-3-yl]ethynyl}pyridine]

- Ki [1]: 24 nM
- Ki [2]: 24 nM
SMILES: C[C@@H]1CC[C@@H](C#Cc2cccnc2O)CN1C(=O)c1ccccc1-n1nccn1 [Example 4, 3-{[(3S,6R)-6-methyl-1-{[2-(2H-1,2,3-triazol-2-yl)phenyl]carbonyl}piperidin-3-yl]ethynyl}pyridin-2-ol]

- Ki [1]: 18 nM
- Ki [2]: 5.6 nM
SMILES: C[C@@H]1CC[C@@H](C#Cc2cccc(CO)n2)CN1C(=O)c1ccccc1-n1nccn1 [Example 9, (6-{[(3S,6R)-6-methyl-1-{[2-(2H-1,2,3-triazol-2-yl)phenyl]carbonyl}piperidin-3-yl]ethynyl}pyridin-2-yl)methanol]

- Ki [1]: 0.56 nM
- Ki [2]: 0.53 nM
SMILES: C[C@@H]1CC[C@@H](C#Cc2ccccc2CO)CN1C(=O)c1ccccc1-n1nccn1 [Example 6, (2-{[(3S,6R)-6-methyl-1-{[2-(2H-1,2,3-triazol-2-yl)phenyl]carbonyl}piperidin-3-yl]ethynyl}phenyl)methanol]
